Assay [1] relates to B16 mouse melanoma. Nature of the assay: Cell viability, B16 cells. The class given is cell-based. Particulars: read-out: reduction of cell viability. An excerpt: Rat glioma C6 and human glioblastoma U251 cell lines were a kind gift from Dr. Pedro Tranque (Universidad de Castilla-La Mancha, Albacete, Spain), murine melanoma B 16, and human adenocarcinoma HeLa, were a kind gift from Dr. Sinisa Radulovic (Institute for Oncology and Radiology of Serbia, Belgrade, Serbia) while mouse fibrosarcoma L929 was obtained from the European Collection of Animal Cell Cultures (Salisbury, UK). Human breast HCC1419 and prostate PC-3 cells were purchased from LGC Promochem srl (Venezia, Italy). Primary mouse fibroblasts and rat astrocytes were prepared as described (Mijatovic et al. 2004). […]
Reduction of 3-4,5-dimethylthiazol-2-yl)-2,5-diphenyltetrazolium bromide (MTT) to formazan depends on mitochondrial activity of cultured cells, absorption of crystal violet dye correlates with the number of adherent, live cells, while the release of cytosolic lactate dehydrogenase (LDH) indicates the disruption of membrane integrity caracteristic for necrotic cells. […] Mitohondrial-dependent production of formazan and intensity of absorbed crystal violet by adherent cells were assessed by an automated microplate reader at 570 nm, while the pyruvate-mediated conversion of 2,4-dinitrophenylhydrazine into visible hydrazone precipitate in LDH assay was measured at 492 nm. […]
FIG. 2. […] Cell viability was then evaluated by CV test. […]

For assay [2], the system named is C6 cells. The assay is described as follows: Cell proliferation by CFSE staining, C6. In kind it is cell-based, rat. Particulars: 18.8 μM, 48 h, about 90% of control cells divided. As to the method:
(§1) Rate of cell proliferation was verified by flow cytometric analysis of cells labelled with CFSE (Kang et al. 2005). CFSE dye is stable in cytoplasm more than 15 generations and the intensity of fluorescence decline after each division. Briefly, detached cells were stained with 1.5 μM CFSE for the 15 min at 37° C., washed 2 times, seeded in 6-well plates at 2×10^5 cells/well and then exposed to drugs. After 24 and 48 h of cultivation cells were trypsinized and washed 2 times. Finally, the cells were resuspended in PBS and analyzed by flow cytometry. Green fluorescence emission was measured with a FACSCalibur (BD, Heidelberg, Germany) and analyzed using CellQuest software.
(§2) FIG. 4. […] Results are calculated as indicated in materials and methods and presented as mean±SD from representative of three independent experiment (*p <0.05). […] After 24 h of cultivation without or with drugs, cells were stained with AO orange (B) or PI (C) and analyzed by flow cytometry. The data are presented as mean±SD from three independent experiments. *p<0.05, refers to untreated cultures. […] Cells were incubated with 18.8 μM of Sag or Saq-NO2 for 24 h. After that, the drugs were either removed or not from the cells and incubated for additional 24 h. Cell viability was determined by CV test after 24 and 48 h of incubation (right panels). […]

Assay [3] deals with B16 cells. Nature of the assay: Cell proliferation by CFSE staining, B16. The class given is cell-based, mouse. Particulars: 18.8 μM, 48 h, B16 cells which survived the treatment. The procedure:
as §1, §2

Assay [4] has as its system B16 cells. Nature of the assay: MBP expression by cell-based ELISA, B16. More on the design: species or system mouse. To be noted: 18.8 μM, 24 h. From the text:
A slightly modified method for cell-based ELISA (cELISA) by Versteeg (Versteed et al., 2000) was used to measure the expression of galactocerebroside, glial fibrilar acidic protein (GFAP), myelin basic protein (MBP), cyclin D3, p53 and p-AKT. Briefly, at the end of cultivation period cells were fixed in 4% paraformaldehyde, endogenous peroxydase was quenched with 1% H2O2 in PBS containing 0.1% Triton X-100 (PBST), and unspecific binding of antibodies blocked with PBST solution containing 10% FCS. […] The absorbance at 450 nm was measured in an automated microplate reader 15 min after incubation with peroxydase substrate TMB and subsequently to addition of 0.1 M HCl. To facilitate comparison between treatments, the obtained absorbances were corrected for the cell number that was determined by crystal violet staining, as described in the original protocol. […]
FIG. 5. […] Cell morphology was assessed by light microscopy (A). Markers of cell differentiation of C6 and B16 cells, galactocerebroside, GFAP and MBP were determined by cELISA and melanin and tyrosinase activity were determined as described in material and methods (B). Cyclin D3 and p53 expression were evaluated by cELISA (C, upper panels), immunocytochemistry (C, middle panel) and Western blot (C, lower panel). […]
(An ELISA detects its analyte on a solid surface through an enzyme-linked reagent.)

The record followed here is patent US8563578B2, “Antitumor properties of NO modified protease inhibitors” (Onconox APS, priority 2008, dated 2013).

Each structure is given as a SMILES string.

As to `CC(C)(C)NC(=O)[C@@H]1C[C@@H]2CCCC[C@@H]2CN1C[C@@H](O[N+](=O)[O-])[C@H](Cc1ccccc1)NC(=O)[C@H](CC(N)=O)NC(=O)c1ccc2ccccc2n1` [Saq-NO2, nitric ester of Saquinavir], in assay [1], the cytotoxicity at 18.8 µM was roughly 70%. For the same compound, the “cells able to proliferate (divided)” value in assay [2] is “less than 10%”. In assay [3], the dividing potential entry is recorded as “decreased dividing potential”. The MBP expression result in assay [4] is listed as “mild elevation”.
